In test [1] the target is TRH receptors in rat cortical membranes. Put plainly: radioligand binding to ^3H-3MeHis-TRH-labelled receptors in rat cortex. Conditions: competition with 6-8 nM ^3H-3MeHis-TRH, Cheng-Prusoff. As for the experimental part:
Evaluation of the ability of TRH, Glp-Asn-ProNH2, and Glp-Asn-ProAMC to bind to ^3H-3MeHis-TRH-labelled receptors in rat cortex: Radioligand binding assays were conducted to investigate the possibility that the two TRH-DE inhibitors might exert their effects by acting independently at TRH receptors in the brain.
Cortex tissue from male Sprague-Dawley rats (250 g) was dissected out, weighed and homogenised in 30 volumes of ice-cold sodium phosphate buffer (0.02 M, pH 7.5). The homogenates were centrifuged at 30,000 g at 4° C. for 30 min. The supernatant was discarded and the pellet was resuspended at 100 mg wet wt/ml in buffer containing 177 μM bacitracin. […] Non-specific binding was defined in the presence of 10 μM TRH.
The statistical significance of differences between behavioural effects of treatments was determined using the Student's t-test or ANOVA, followed by a post-ANOVA test, as indicated. Radioligand binding data were analysed using non-linear curve fitting software (Prism, Graph Pad Software Inc.). IC50 values calculated from competition experiments were converted to Ki values using the Cheng-Prusoff (41) equation Ki=IC50/(1+L/Kd), where L=ligand concentration and Kd=the apparent dissociation constant for [^3H]-[3-MeHis]TRH.

The test system of test [2] is Male Wistar rats. Put plainly: behavioural effects (activity score, WDS, locomotion) after i.p. administration. The format is in vivo, rat. As for the experimental part: Methods: Behavioural studies were conducted using experimentally naïve Male Wistar rats (200-250 g) maintained in a temperature controlled (21° C.), artificially-lighted (12 hr light cycle) room with free access to food and water. Behavioural effects of TRH±TRH-DE inhibitor following intraperitoneal (i.p.) administration: On the day of the experiment, animals were singly housed in perspex cages (30×20×20 cm) and allowed to acclimatize for 20 min. After this period, two baseline measurements of behaviour were made at 10 and 5 min prior to administration of drugs. […] Animals were then observed by two independent observers who were blind to treatment, every 5 min for 30 sec. Blocks of 5 animals were treated at a time, 1 per drug group. Blocks were repeated 5 times. The occurrence of individual behaviours were noted using a behavioural check list, which included grooming, locomotion, rearing, chewing, sniffing, head weave, tail elevation, and/or straub tail and WDS behaviours. These behaviours were summed to yield an overall activity count. Animals were videotaped for separate subsequent analysis of WDS. All WDS behaviours occurring during each 5 min interval after drug administration were counted. The statistical significance of differences between behavioural effects of treatments was determined using the Student's t-test or ANOVA, followed by a post-ANOVA test, as indicated. Radioligand binding data were analysed using non-linear curve fitting software (Prism, Graph Pad Software Inc.). IC50 values calculated from competition experiments were converted to Ki values using the Cheng-Prusoff (41) equation Ki=IC50/(1+L/Kd), where L=ligand concentration and Kd=the apparent dissociation constant for [^3[…].

In test [3] the target is T1, TRH-DE (Sus scrofa, UniProt A0A287AP33).
T1 construct: The inventor purified TRH-DE from porcine brain according to purification procedures previously published by Dr. K. Bauer; from tissue; host or cells: porcine brain (TRH-DE); bovine kidney (DPP-IV, gift from Dr. C. H. Williams)
T1 sequence (A0A287AP33 1-1066): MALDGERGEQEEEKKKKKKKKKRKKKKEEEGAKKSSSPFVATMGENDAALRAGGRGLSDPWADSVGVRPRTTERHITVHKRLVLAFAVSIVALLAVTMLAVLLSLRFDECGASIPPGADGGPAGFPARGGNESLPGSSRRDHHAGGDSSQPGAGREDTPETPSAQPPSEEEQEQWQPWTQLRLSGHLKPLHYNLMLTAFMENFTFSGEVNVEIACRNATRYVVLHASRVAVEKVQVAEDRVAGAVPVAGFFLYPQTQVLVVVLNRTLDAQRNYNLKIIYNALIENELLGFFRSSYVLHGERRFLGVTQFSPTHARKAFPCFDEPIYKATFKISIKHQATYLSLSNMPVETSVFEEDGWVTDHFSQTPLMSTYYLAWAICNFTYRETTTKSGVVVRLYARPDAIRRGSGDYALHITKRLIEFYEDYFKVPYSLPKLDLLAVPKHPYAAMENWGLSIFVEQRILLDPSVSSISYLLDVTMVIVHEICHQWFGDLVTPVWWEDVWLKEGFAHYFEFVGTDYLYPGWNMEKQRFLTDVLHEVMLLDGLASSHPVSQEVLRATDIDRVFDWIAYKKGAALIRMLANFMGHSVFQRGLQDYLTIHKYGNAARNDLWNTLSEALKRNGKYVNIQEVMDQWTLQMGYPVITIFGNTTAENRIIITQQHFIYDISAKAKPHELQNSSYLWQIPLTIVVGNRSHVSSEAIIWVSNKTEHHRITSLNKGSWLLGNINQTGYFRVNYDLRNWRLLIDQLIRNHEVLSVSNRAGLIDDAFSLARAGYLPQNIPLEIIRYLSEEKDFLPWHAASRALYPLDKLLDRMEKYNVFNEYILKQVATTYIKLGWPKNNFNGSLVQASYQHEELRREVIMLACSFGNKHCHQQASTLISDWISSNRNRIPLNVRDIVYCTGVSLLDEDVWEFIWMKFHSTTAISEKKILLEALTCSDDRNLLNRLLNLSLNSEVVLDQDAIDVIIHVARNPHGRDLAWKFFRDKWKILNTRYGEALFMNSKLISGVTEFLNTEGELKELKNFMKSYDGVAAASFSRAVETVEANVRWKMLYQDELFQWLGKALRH
Description: continuous coupled fluorometric TRH-DE assay (TRHAMC substrate, DPP-IV coupling enzyme). Type of test: biochemical, porcine. Conditions: for Ki: non-linear regression, five TRHAMC concentrations and at least three peptide concentrations, mean±S.D. (n=3). As to the method: The inventor purified TRH-DE from porcine brain according to purification procedures previously published by Dr. K. Bauer, (Max-Planck-Institut, Hannover, Germany) (1). TRH-DE was purified almost 20,000 fold. […] Dipeptidyl peptidase IV (DPP-IV) (EC 3.4.14.5), purified from bovine kidney (7.7 mg ml^−1, specific activity of 17.5 U mg^−1 with Gly-ProAMC as substrate), was obtained as a gilt from Dr. C. H. Williams (Queen's University Belfast, U.K). (DPP-IV was used as the coupling enzyme used in the fluorometric assays).
One unit (U) of enzyme activity was defined as that amount catalysing the formation of one μmol of product in one minute under the standard conditions employed. All incubations in the assays described below were carried out in 20 mM potassium phosphate buffer, pH 7.5, at 37° C.
Kinetic analysis of peptides that are not hydrolysed by TRH-DE. A recently-developed continuous coupled fluorometric assay (23) was used to investigate the ability of those library peptides that were not hydrolysed by TRH-DE to inhibit TRHAMC degradation by TRH-DE. In this assay, TRHAMC is the substrate and dipeptidyl peptidase IV (DPP-IV) (EC 3.4.14.5) is the coupling enzyme. The reaction sequence is:
The reaction was monitored continuously by measuring the increase in AMC fluorescence. A linear progress curve with no discernible lag period was observed when the reaction was monitored over a period of 10 minutes. Nevertheless, data sampling was not commenced until 100 s from the start of the reaction to ensure measurements were taken after a steady state had been reached (see Ref. 23).
In a preliminary experiment, the peptides were screened for their ability to inhibit TRH-DE activity. The initial rate of TRHAMC hydrolysis by TRH-DE was measured by incubating 5 μM TRHAMC with 1.23 μg DPP-IV and 0.32 μg TRH-DE, both in the absence and presence of each library peptide (1 mM final concentration) under standard assay conditions (23). In each case the percentage inhibition (i%) was calculated using the equation i%=100(1-vi/vo), where vi and vo are the initial velocities in the presence and absence of peptide, respectively.
Since these peptides were poor inhibitors they were not examined further. The Ki values for the remainder of the peptides were determined by measuring their effects on TRHAMC degradation by TRH-DE using the continuous assay. Data were collected in duplicate at five different substrate concentrations and at least three different concentrations of each peptide.
Reversibility and time dependence of the inhibition produced by Glp-Gln-ProNH2, Glp-Asn-ProNH2 and Glp-Asn-ProAMC were examined by initially preincubating TRH-DE with each peptide at 37° C. for various periods up to 75 min. To investigate time dependence, the enzyme-peptide solution was subsequently added to the reaction mixture containing TRHAMC, DPP-IV, buffer and peptide, and TRH-DE activity was measured using the continuous assay. The final concentration of Glp-Gln-ProNH2, Glp-Asn-ProNH2 and Glp-Asn-ProAMC used was 400, 160 and 1 μM, respectively. […] TRH-DE activity was not affected by pre-incubation at 37° C.
Fluorescence measurements were made using a Perkin Elmer LS 50B Luminescence Spectrometer fitted with a thernostated cell holder. Wavelengths for excitation and emission were set at 370 nm and 440 nm, respectively, with slit widths of 10 nm and 5 nm, respectively.

Where a SMILES comes first, the peptide text is derived from it. [ ]: non-standard residue; d: D form. pGlu = O=C1CC[C@@H](C(=O)O)N1

On to `NC(=O)C[C@H](NC(=O)[C@@H]1CCC(=O)N1)C(=O)N1CCC[C@H]1C(N)=O` [Glp-Asn-ProNH2, pyroglutamyl-asparaginyl-prolineamide] ([pGlu]-Asn-Pro-NH2), for which the negative-log Ki (pKi) – broadly, the negative decadic logarithm of the Ki, by convention in mol/L – in test [1] turned out to be 5.15±0.24. For the same compound, in test [2] (i.p. administration, 10 mg/kg), the increase in locomotion entry is “not detected”. Moreover, the “rat activity scores compared with saline” value in test [2] (i.p., 10 mg/kg each, 40 min post injection) is given as “significantly increased activity counts”. Also, in test [3] (continuous assay, Lineweaver-Burk plot), the “mode of inhibition of TRH-DE” value is given as “simple competitive inhibitors”. For the same compound, the Ki in test [3] and in test [3] (listed as Glp-Asn-Pro-NH2) was 17.5 µM throughout. Further, testing at 1000 µM in test [3] (peptide 1 mM, 5 μM TRHAMC substrate) gave an inhibition of 97%. The “reversibility and time dependence of inhibition” value in test [3] (preincubation with TRH-DE up to 75 min at 37° C., Glp-Gln-ProNH2 400, Glp-Asn-ProNH2 160, Glp-Asn-ProAMC 1 μM) was “fully reversible and not time-dependent”.
